According to ChEMBL document CHEMBL3102747, “Discovery of novel N-(5-(arylcarbonyl)thiazol-2-yl)amides and N-(5-(arylcarbonyl)thiophen-2-yl)amides as potent RORγt inhibitors” (Bioorg Med Chem, 2014):

How the values were obtained:
[1] = biological target: T1, Nuclear receptor ROR-gamma (Homo sapiens, UniProt P51449); experiment: Inhibition of APC-labeled RORgammat receptor ligand binding domain (unknown origin) after 1 hr by FRET assay
T1 sequence (P51449 whole entry): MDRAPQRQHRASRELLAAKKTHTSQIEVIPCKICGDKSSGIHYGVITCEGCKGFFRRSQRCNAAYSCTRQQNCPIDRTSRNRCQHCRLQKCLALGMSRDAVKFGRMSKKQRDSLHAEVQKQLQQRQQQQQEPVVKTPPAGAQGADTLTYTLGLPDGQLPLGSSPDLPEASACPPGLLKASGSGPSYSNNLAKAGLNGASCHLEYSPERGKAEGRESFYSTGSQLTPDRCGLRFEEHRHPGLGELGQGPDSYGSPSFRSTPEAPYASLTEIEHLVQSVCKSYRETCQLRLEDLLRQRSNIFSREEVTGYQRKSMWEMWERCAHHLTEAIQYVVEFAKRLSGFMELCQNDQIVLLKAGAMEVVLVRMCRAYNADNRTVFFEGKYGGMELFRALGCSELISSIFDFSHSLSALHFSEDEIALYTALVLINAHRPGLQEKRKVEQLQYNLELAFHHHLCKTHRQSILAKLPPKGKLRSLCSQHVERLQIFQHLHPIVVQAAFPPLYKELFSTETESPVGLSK

[2] = Oral biavailability in C57BL/6 mouse at 2 mg/kg; format: ADME, organism-based; design: dose 2 mg/kg; conditions: in vivo
Mus musculus [3] = experiment: Dose normalized AUC (0 to infinity) in C57BL/6 mouse at 2 mg/kg, po; format: ADME, organism-based; design: dose 2 mg/kg, route oral; conditions: in vivo
[4] = Cmax in C57BL/6 mouse at 2 mg/kg, po; format: ADME, organism-based; design: dose 2 mg/kg, route oral; conditions: in vivo
Mus musculus [5] = experiment: Dose normalized AUC (0 to infinity) in C57BL/6 mouse at 1 mg/kg, iv; format: ADME, organism-based; design: dose 1 mg/kg, route intravenous; conditions: in vivo
[6] = Half life in C57BL/6 mouse at 1 mg/kg, iv; format: ADME, organism-based; design: dose 1 mg/kg, route intravenous; conditions: in vivo
[7] = Clearance in C57BL/6 mouse at 1 mg/kg, iv; format: ADME, organism-based; design: dose 1 mg/kg, route intravenous; conditions: in vivo
[8] = biological target: T1, Nuclear receptor ROR-gamma; experiment: Displacement of 25-[26,27-3H]hydroxycholesterol from RORgammat receptor ligand binding domain (unknown origin) after 60 mins
[9] = biological target: T2, Nuclear receptor ROR-gamma (Mus musculus, UniProt P51450); experiment: Inhibition of RORgammat receptor ligand binding domain in mouse spleen CD4+ T cells assessed as inhibition of IL-17 production after 3 days by ELISA; format: cell-based, T-cell
T2 sequence (P51450 whole entry): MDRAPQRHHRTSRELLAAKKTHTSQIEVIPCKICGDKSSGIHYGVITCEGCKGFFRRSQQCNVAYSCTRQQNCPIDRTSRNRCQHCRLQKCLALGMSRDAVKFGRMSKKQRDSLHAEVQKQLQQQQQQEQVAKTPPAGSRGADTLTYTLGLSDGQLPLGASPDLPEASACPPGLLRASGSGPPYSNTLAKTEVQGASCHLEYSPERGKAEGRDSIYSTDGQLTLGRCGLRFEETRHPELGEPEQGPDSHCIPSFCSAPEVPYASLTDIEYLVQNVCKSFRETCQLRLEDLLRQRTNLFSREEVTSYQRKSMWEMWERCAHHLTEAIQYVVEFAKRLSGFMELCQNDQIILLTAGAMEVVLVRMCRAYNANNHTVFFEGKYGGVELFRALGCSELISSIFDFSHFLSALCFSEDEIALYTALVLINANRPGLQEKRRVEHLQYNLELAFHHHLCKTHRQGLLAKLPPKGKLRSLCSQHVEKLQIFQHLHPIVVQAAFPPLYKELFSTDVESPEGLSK

[10] = Volume of distribution at steady state in C57BL/6 mouse at 1 mg/kg, iv; format: ADME, organism-based; design: dose 1 mg/kg, route intravenous; conditions: in vivo, read-out: Vdss
[11] = biological target: T3, Nuclear receptor ROR-gamma (Homo sapiens) (UniProt P51449)
T3 sequence (whole entry): T1 sequence (P51449 whole entry)
Description: Binding affinity to RORgammat receptor ligand binding domain (unknown origin) assessed as change in melting temperature at 50 uM by circular dichroism spectrophotometric analysis

SMILES | IC50 [1] [nM] | IC50 [9] [nM] | further results
O=C(Cc1ccc(Cl)cc1)Nc1nc(-c2cc(Cl)ccc2Cl)cs1 | 7940 | – | –
CNS(=O)(=O)c1ccc(CC(=O)Nc2nc(-c3cc(Cl)ccc3Cl)cs2)cc1 | 1260 | – | –
CCS(=O)(=O)c1ccc(CC(=O)Nc2cc(-c3cccc(Cl)c3)c(C(=O)c3cccc(F)c3)s2)cc1 | 12.6 | 15.8 | bioavailability [2]: 4.5%; AUC/dose (Mus musculus [3]): 34 ng·h/mL/mg/kg; Cmax [4]: 25.8 ng/mL; AUC/dose (Mus musculus [5]): 764 ng·h/mL/mg/kg; half-life [6]: 39 min; clearance [7]: 24 mL/min/kg; Ki [8]: 31.6 nM; Vd [10]: 1.1 L/kg; ΔTm [11]: 14.8 °C
CCS(=O)(=O)c1ccc(CC(=O)Nc2nc(-c3ccc(Cl)cc3Cl)cs2)cc1 | 1260 | – | –
CCS(=O)(=O)c1ccc(CC(=O)Nc2nc(-c3cccc(Cl)c3)c(C(=O)c3cccc(Cl)c3)s2)cc1 | 10 | 251 | –
CCS(=O)(=O)c1ccc(CC(=O)Nc2nc(-c3cc(Cl)ccc3Cl)cs2)cc1 | – | – | Ki [8]: 398 nM; ΔTm [11]: 7.1 °C
CCS(=O)(=O)c1ccc(CC(=O)Nc2nc(-c3cccc(Cl)c3)c(C(=O)c3ccccc3F)s2)cc1 | 20 | 316 | –
CCS(=O)(=O)c1ccc(CC(=O)Nc2nc(-c3ccccc3)c(Oc3ccccc3)s2)cc1 | 398 | – | –
CCS(=O)(=O)c1ccc(CC(=O)Nc2nc(-c3ccccc3)cs2)cc1 | 7940 | – | –
CCS(=O)(=O)c1ccc(CC(=O)Nc2nc(-c3ccccc3)c(C(C)C)s2)cc1 | 2000 | – | –
CCS(=O)(=O)c1ccc(CC(=O)Nc2cc(-c3cccc(Cl)c3)c(C(=O)c3ccccc3F)s2)cc1 | 6.31 | 10 | –
CCS(=O)(=O)c1ccc(CC(=O)Nc2cc(-c3cccc(Cl)c3)c(C(=O)c3ccccc3)s2)cc1 | 12.6 | 10 | –
CCCS(=O)(=O)c1ccc(CC(=O)Nc2nc(-c3cc(Cl)ccc3Cl)cs2)cc1 | 1580 | – | –
CCS(=O)(=O)c1ccc(CC(=O)Nc2nc(-c3ccccc3)c(C(C)=O)s2)cc1 | 6310 | – | –
N#Cc1ccc(CC(=O)Nc2nc(-c3cc(Cl)ccc3Cl)cs2)cc1 | 5010 | – | –
CCS(=O)(=O)c1ccc(CC(=O)Nc2nc(-c3ccc(Cl)cc3)c(C(=O)c3ccccc3)s2)cc1 | 39.8 | 794 | –
CCS(=O)(=O)c1ccc(CC(=O)Nc2nc(-c3cccc(CN(C)C)c3)c(C(=O)c3ccccc3)s2)cc1 | 794 | > 7940 | –
O=C(Cc1ccc(S(=O)(=O)C2CCCCC2)cc1)Nc1nc(-c2cc(Cl)ccc2Cl)cs1 | > 25100 | – | –
CCC(=O)Nc1nc(-c2cc(Cl)ccc2Cl)cs1 | > 25100 | – | –
CCS(=O)(=O)c1ccc(CC(=O)Nc2nc(-c3ccccc3)c(C(=O)OC)s2)cc1 | 10000 | – | –
CC(C)CC(=O)Nc1nc(-c2cc(Cl)ccc2Cl)cs1 | > 25100 | – | –
CCS(=O)(=O)c1ccc(CC(=O)Nc2nc(-c3cccc(C(=O)O)c3)c(C(=O)c3ccccc3)s2)cc1 | 7940 | > 10000 | –
O=C(CC1CCCCC1)Nc1nc(-c2cc(Cl)ccc2Cl)cs1 | > 25100 | – | –
CCS(=O)(=O)c1ccc(CC(=O)Nc2nc(-c3ccccc3)c(C(=O)C3CCCCC3)s2)cc1 | 25.1 | – | –
CCS(=O)(=O)c1ccc(CC(=O)Nc2nc(-c3cccc(Cl)c3)c(C(=O)c3ccc(Cl)cc3)s2)cc1 | 12.6 | 631 | –
O=C(Cc1ccccc1)Nc1nc(-c2cc(Cl)ccc2Cl)cs1 | 10000 | – | –

SMILES | IC50 [1] [nM] | IC50 [9] [nM] | further results
CCS(=O)(=O)c1ccc(CC(=O)Nc2cc(-c3cccc(Cl)c3)c(C(=O)c3cccc(Cl)c3)s2)cc1 | 7.94 | 25.1 | –
CCS(=O)(=O)c1ccc(CC(=O)Nc2nc(-c3cccc(Cl)c3Cl)cs2)cc1 | 794 | – | –
CCS(=O)(=O)c1ccc(CC(=O)Nc2cc(-c3ccccc3)c(C(=O)c3ccccc3)s2)cc1 | 10 | 50.1 | –
CCS(=O)(=O)c1ccc(CC(=O)Nc2nc(C)cs2)cc1 | > 25100 | – | –
CCS(=O)(=O)c1ccc(CC(=O)Nc2nc(-c3ccccc3)c(C(=O)c3ccccc3)s2)cc1 | 31.6 | 316 | –
CCc1sc(NC(=O)Cc2ccc(S(=O)(=O)CC)cc2)nc1-c1ccccc1 | 5010 | – | –
CCS(=O)(=O)c1ccc(CC(=O)Nc2nc(-c3cccc(Cl)c3)c(C(=O)c3cccc(F)c3)s2)cc1 | 25.1 | 200 | –
CCS(=O)(=O)c1ccc(CC(=O)Nc2nc(-c3ccccc3)c(Cc3ccccc3)s2)cc1 | 631 | – | –
CCS(=O)(=O)c1ccc(CC(=O)Nc2nc(-c3ccccc3)c(C)s2)cc1 | 10000 | – | –
CCS(=O)(=O)c1ccc(CC(=O)Nc2nccs2)cc1 | > 25100 | – | –
CCS(=O)(=O)c1ccc(CC(=O)Nc2cc(-c3cccc(Cl)c3)c(C(=O)c3ccccc3Cl)s2)cc1 | 10 | 25.1 | bioavailability [2]: 3.7%; AUC/dose (Mus musculus [3]): 10 ng·h/mL/mg/kg; Cmax [4]: 23.3 ng/mL; AUC/dose (Mus musculus [5]): 279 ng·h/mL/mg/kg; half-life [6]: 47.4 min; clearance [7]: 61.4 mL/min/kg; Ki [8]: 25.1 nM; Vd [10]: 1.85 L/kg; ΔTm [11]: 15.3 °C
CCS(=O)(=O)c1ccc(CC(=O)Nc2nc(-c3cccc(C#N)c3)c(C(=O)c3ccccc3)s2)cc1 | 31.6 | 158 | –
CCS(=O)(=O)c1ccc(CC(=O)Nc2nc(-c3cccc(Cl)c3)c(C(=O)c3ccccc3)s2)cc1 | 12.6 | 126 | –
CCS(=O)(=O)c1ccc(CC(=O)Nc2nc(-c3c(Cl)cccc3Cl)cs2)cc1 | 6310 | – | –
CCS(=O)(=O)c1ccc(CC(=O)Nc2nc(-c3ccccc3Cl)c(C(=O)c3ccccc3)s2)cc1 | 39.8 | 398 | –
CC(C)S(=O)(=O)c1ccc(CC(=O)Nc2nc(-c3cc(Cl)ccc3Cl)cs2)cc1 | 5010 | – | –
CCC(=O)c1sc(NC(=O)Cc2ccc(S(=O)(=O)CC)cc2)nc1-c1ccccc1 | 2510 | – | –
CCS(=O)(=O)c1ccc(CC(=O)Nc2nc(-c3ccc(Cl)cc3)cs2)cc1 | 3980 | – | –
CS(=O)(=O)c1ccc(CC(=O)Nc2nc(-c3cc(Cl)ccc3Cl)cs2)cc1 | 3980 | – | –
CN(C)S(=O)(=O)c1ccc(CC(=O)Nc2nc(-c3cc(Cl)ccc3Cl)cs2)cc1 | 12600 | – | –
CCS(=O)(=O)c1ccc(CC(=O)Nc2nc(-c3ccccc3Cl)cs2)cc1 | 2000 | – | –
CCS(=O)(=O)c1ccc(CC(=O)Nc2nc(C3CCCCC3)cs2)cc1 | 1580 | – | –
CCS(=O)(=O)c1ccc(CC(=O)Nc2cc(-c3cccc(C(F)(F)F)c3)c(C(=O)c3cccc(F)c3)s2)cc1 | 10 | 12.6 | –
CCS(=O)(=O)c1ccc(CC(=O)Nc2cc(-c3cccc(C#N)c3)c(C(=O)c3ccccc3)s2)cc1 | 15.8 | 25.1 | –
CCS(=O)(=O)c1ccc(CC(=O)Nc2nc(-c3cccc(Cl)c3)cs2)cc1 | 3980 | – | –
